# Measured values from patent US20130266557A1, “METHODS FOR TREATMENT OF A SARCOMA USING AN EPIMETABOLIC SHIFTER (COENZYME Q10)” (priority 2009, published 2013).
# “Also recorded” adds a separate entry of the source.
# Tested on: NCIES0808 cells
# Assay: Two-dimensional gel analysis with MS identification
# Type: cell-based, human
# Experimental: NCIES0808 cells were plated in T25 flasks in experimental conditions similar to those described in the PCR array section. At the end of the treatment time, cells were trypsinized as described in the PCR array section and washed twice in ice cold TBS and snap frozen in liquid nitrogen. Further processing for Western blots was carried out at UMass.
# Before isoelectric focusing (IEF), samples were solubilized in 40 mM Tris, 7 M urea, 2 M thiourea, and 1% C7 zwitterionic detergent, reduced with tributylphosphine, and alkylated with 10 mM acrylamide for 90 min at room temperature. After the sample was run through a 10-kDa cutoff Amicon Ultra device with at least 3 volumes of the resuspension buffer, consisting of 7 M urea, 2 M thiourea, and 2% CHAPS to reduce the conductivity of the sample. One hundred micrograms of protein were subjected to IEF on 11-cm pH 3 to 10, pH 4 to 7 or pH 6 to 11 immobilized pH gradient strips (GE, Amersham, USA) to 100,000 volts hour. After IEF, immobilized pH gradient strips were equilibrated in 6 M urea, 2% SDS, 50 mM Tris-acetate buffer, pH 7.0, and 0.01% bromphenol blue and subjected to SDS-polyacrylamide gel electrophoresis on 8 to 16% Tris-HCl Precast Gel, 1 mm (Bio-Rad, USA). The gels were run in duplicate. They were fixed, stained in SYPRO Ruby, 80 mL/gel (Invitrogen, USA) and imaged on Fuji FLA-5100 laser scanner.
# Analysis of all gel images was performed using Progenesis Discovery and Pro (Nonlinear Dynamics Inc., Newcastle upon Tyne, UK). After spot detection, matching, background subtraction, normalization, and filtering, data for SYPRO Ruby gel images was exported. […] Manual annotation of each statistically significant spots was performed to assure accurate detection.
# Tryptic peptides extracted from respective gel plugs were dried down to a 10 ul volume and acidified with 1-2 ul of 1% TFA. Samples were loaded on an uC18 Zip Tip (Millipore, Corp) after pre-equilibration in 0.1% TFA. After washing with 2×10 ul aliquots of 0.1% TFA, samples were deposited directly onto the MALDI sample target using 1 ul of Matrix solution 15 mg/ml of 2,5 Dihydroxybenzoic Acid (MassPrep DHB, Waters Corp.) in 50:50 Acetonitrile: 0.1% TFA. Samples were allowed to air dry prior to insertion into the mass spectrometer. Analysis were performed on a Kratos Axima QIT (Shimadzu Instruments) matrix-assisted-laser desorption/ionization (MALDI) mass spectrometer. Peptides were analyzed in positive ion mode in mid mass range (700-3000 Da). The instrument was externally calibrated with Angiotensin II (1046.54), P14R (1533.86) and ACTH (18-39) 2465.20 Da. Precursors were selected based on signal intensity at a mass resolution width of 250 for CID fragmentation using Argon as the collision gas. Database searches were performed in house with Mascot (Matrix Sciences, Ltd.) using the Peptide Mass Fingerprint program for MS data and the MS/MS Ion Search program for CID data. All identifications were confirmed or established with CID (MS/MS) data.
# NCIES0808 cells treated for 3, 6 and 24 hours were subjected to 2-D gel electrophoreses and were analyzed to identify protein-level changes relative to the control media samples. A comparative analysis of spots across multiple duplicated gels was performed, comparing the “control media sample” against all of the treated samples at both the 50 uM and 100 uM doses. The analysis included the identification of spot changes over the time course due to an increase, decrease, or post-translational modification.
# [1] = 24 hours, 50 uM Q10, − = down, 1 = no change
# [2] = 24 hours, 100 uM Q10, − = down, 1 = no change
substance,measurement,setting,value
Coenzyme Q10 [CoQ10],"Spot 372, lamin B1: modulation vs control media",[1],1
same,"Spot 387, SMT 3 suppressor of mif two 3 homolog 2: modulation vs control media",[1],1
same,"Spot 388, heat shock protein 27 kD: modulation vs control media",[1],1.1
same,"Spot 396, hnRNP C1/C2: modulation vs control media",[1],−1.4
same,"Spot 436, eukaryotc translation elongation factor 1 beta 2: modulation vs control media",[1],1
same,"Spot 490, Similar to HSPC-300: modulation vs control media",[1],−1.2
same,"Spot 506, heat shock protein 27 kD: modulation vs control media",[1],−1.2
same,"Spot 511, eukaryotic translation elongation factor 1 delta: modulation vs control media",[1],1
same,"Spot 524, eukaryotic translation elongation factor 1 delta: modulation vs control media",[1],1
same,"Spot 532, putative c-myc-responsive isoform 1: modulation vs control media",[1],1
same,"Spot 557, lamin B1: modulation vs control media",[1],1
same,"Spot 575, ER lipid raft associated 2 isoform 1; beta actin: modulation vs control media",[1],1.1
same,"Spot 583, Dismutase Cu/Zn Superoxide: modulation vs control media",[1],1.1
same,"Spot 622, DNA directed DNA polymerase epislon 3; (canopy 2 homolog): modulation vs control media",[1],−1.1
same,"Spot 646, signal sequence receptor 1 delta: modulation vs control media",[1],1
same,"Spot 16, alpha 2-HS glycoprotein (Bos Taurus, cow): modulation vs control media",[2],5.9
same,"Spot 130, ribosomal proten P2; histone H2A: modulation vs control media",[2],−4.2
same,"Spot 180, beta actin: modulation vs control media",[2],3
same,"Spot 234, hnRNP C1/C2: modulation vs control media",[2],−2.6
same,"Spot 244, heat shock protein 70 kD: modulation vs control media",[2],1.7
same,"Spot 275, microtubule associated protein: modulation vs control media",[2],−1.8
same,"Spot 311, beta tubulin: modulation vs control media",[2],2.6
same,"Spot 314, proteasome alpha 3: modulation vs control media",[2],−2.2
same,"Spot 363, ATP dependent helicase II: modulation vs control media",[2],2.1
same,"Spot 369, eukaryotic translation elongation factor 1 delta: modulation vs control media",[2],−2
same,"Spot 372, lamin B1: modulation vs control media",[2],−2.1
same,"Spot 387, SMT 3 suppressor of mif two 3 homolog 2: modulation vs control media",[2],−1.95
same,"Spot 388, heat shock protein 27 kD: modulation vs control media",[2],−1.7
same,"Spot 396, hnRNP C1/C2: modulation vs control media",[2],−2
same,"Spot 436, eukaryotc translation elongation factor 1 beta 2: modulation vs control media",[2],−1.9
same,"Spot 490, Similar to HSPC-300: modulation vs control media",[2],1.5
same,"Spot 506, heat shock protein 27 kD: modulation vs control media",[2],−1.9
same,"Spot 511, eukaryotic translation elongation factor 1 delta: modulation vs control media",[2],−1.6
same,"Spot 524, eukaryotic translation elongation factor 1 delta: modulation vs control media",[2],−1.7
same,"Spot 532, putative c-myc-responsive isoform 1: modulation vs control media",[2],1.4
same,"Spot 557, lamin B1: modulation vs control media",[2],−1.6
same,"Spot 575, ER lipid raft associated 2 isoform 1; beta actin: modulation vs control media",[2],1.6
same,"Spot 583, Dismutase Cu/Zn Superoxide: modulation vs control media",[2],−1.3
same,"Spot 622, DNA directed DNA polymerase epislon 3; (canopy 2 homolog): modulation vs control media",[2],−1.6
same,"Spot 646, signal sequence receptor 1 delta: modulation vs control media",[2],1.5
same,"Expression of proteosome subunits PSMA3, PSMB3, PSMB4 and ubiquitin enzymes (ubiquilin)",Ewing Sarcoma ES0808 cell line treated with CoQ10,sustained increases
same,Ku70 (ATP dependent helicase II) level,Ewing Sarcoma ES0808 cell lines treated with CoQ10,decrease
same,"Proteins with observed increase in expression (value = protein), discussion A",Ewing Sarcoma cell line treated with CoQ10,"ribosomal proteins (RPLP2); also recorded: eukaryotic translation initiation factors (EIF3G, EIF4A2); also recorded: eukaryotic translation elongation factors (EEF1B2, EEF1D); also recorded: heat shock proteins (HSP27, HSP60, HSP70); also recorded: dyenin"
same,hnRNP C1/C2 expression,persisted up to 24 hours,down-regulation
